{"source": "patent US10858335B2", "about": "(Rigel Pharmaceuticals, Inc., priority 2014, dated 2020)", "data": [{"tested_on": "GDF8 signaling (p-SMAD-3 (Ser423/425))", "assay": "AlphaScreen SureFire SMAD3 (p-Ser423/425) assay, GDF8-stimulated cells (GDF pSMAD)", "format": "cell-based", "details": "Mus musculus, MPC-11, GDF8-stimulated pSMAD3, MPC11; tested as the salt form given; read-out: GDF pSMAD (MPC11) (μM), inhibition of GDF8 signaling", "units": {"IC50": "µM"}, "values": [{"smiles": "Nc1ncnc2ccc(-c3cccnc3-c3cc(C(F)F)ccc3F)cc12", "note": "[compound 1023, 6-(2-(5-(difluoromethyl)-2-fluorophenyl)pyridin-3-yl)quinazolin-4-amine]", "IC50": 0.0958}, {"smiles": "Cc1cc2ncnc(N)c2cc1-c1cccnc1-c1ccc(F)c(Cl)c1", "note": "[compound 980, 6-(2-(3-chloro-4-fluorophenyl)pyridin-3-yl)-7-methylquinazolin-4-amine]", "IC50": 3.73}, {"smiles": "O=C(O)CNc1ncnc2ccc(-c3cccnc3-c3cc(Cl)ccc3F)cc12", "note": "[compound 1031, (6-(2-(5-chloro-2-fluorophenyl)pyridin-3-yl)quinazolin-4-yl)glycine]", "IC50": 15.8}, {"smiles": "Cc1cc(-c2ncccc2-c2ccc3ncnc(N)c3c2)c(C)cc1F", "note": "[compound 1002, 6-(2-(4-fluoro-2,5-dimethylphenyl)pyridin-3-yl)quinazolin-4-amine]", "IC50": 1.42}, {"smiles": "Nc1ncnc2ccc(-c3cccnc3-c3cc(OC(F)(F)F)ccc3F)cc12", "note": "[compound 1014, 6-(2-(2-fluoro-5-(trifluoromethoxy)phenyl)pyridin-3-yl)quinazolin-4-amine]", "IC50": 0.416}, {"smiles": "Cn1ccc(Nc2ncnc3ccc(-c4cccnc4-c4cc(Cl)ccc4F)cc23)n1", "note": "[compound 1032, 6-(2-(5-chloro-2-fluorophenyl)pyridin-3-yl)-N-(1-methyl-1H-pyrazol-3-yl)quinazolin-4-amine]", "IC50": 1.09}]}, {"tested_on": "GDF8 signaling (p-SMAD-3 (Ser423/425))", "assay": "AlphaScreen SureFire SMAD3 (p-Ser423/425) assay, GDF8-stimulated cells (GDF pSMAD)", "format": "cell-based", "details": "Mus musculus, MPC-11, MPC11; GDF8-stimulated; p-SMAD3 AlphaScreen; read-out: GDF pSMAD (MPC11) (inhibition of GDF8 signaling)", "units": {"IC50": "µM"}, "values": [{"smiles": "Cc1cc(-c2ncccc2-c2ccc3cnc(-c4cccc(N)c4)n3c2)ccc1F", "note": "[compound 283, 3-(6-(2-(4-Fluoro-3-methylphenyl)pyridin-3-yl)imidazo[1,5-a]pyridin-3-yl)aniline]", "IC50": 17.7}, {"smiles": "Fc1cccc(-c2ncccc2-c2ccc3ncsc3c2)c1", "note": "[compound 658, 6-(2-(3-Fluorophenyl)pyridin-3-yl)benzo[d]thiazole]", "IC50": 1.5}, {"smiles": "Cc1cc(-c2ncc(NCc3ccc(O)c(OC(F)(F)F)c3)cc2-c2ccc3ncsc3c2)ccc1F", "note": "[compound 371, 4-(((5-(Benzo[d]thiazol-6-yl)-6-(4-fluoro-3-methylphenyl)pyridin-3-yl)amino)methyl)-2-(trifluoromethoxy)phenol]", "IC50": 0.737}, {"smiles": "Nc1ncnc2ccc(-c3cccnc3-c3cccc(Cl)c3Cl)cc12", "note": "[compound 498, 6-(2-(2,3-Dichlorophenyl)pyridin-3-yl)quinazolin-4-amine]", "IC50": 1.2}, {"smiles": "Cc1cc(-c2ncccc2-c2ccc3ncnc(Oc4cccc(N5CCOCC5)c4)c3c2)ccc1F", "note": "[compound 444, 4-(3-((6-(2-(4-Fluoro-3-methylphenyl)pyridin-3-yl)quinazolin-4-yl)oxy)phenyl)morpholine]", "IC50": 1.08}, {"smiles": "Cc1cc(-c2ncccc2-c2ccn3c(C(=O)NCCCN4CCCC4)ncc3c2)ccc1F", "note": "[compound 278, 7-(2-(4-Fluoro-3-methylphenyl)pyridin-3-yl)-N-(3-(pyrrolidin-1-yl)propyl)imidazo[1,5-a]pyridine-3-carboxamide]", "IC50": 2.23}, {"smiles": "Cc1cc(-c2ncccc2-c2ccn3ncc(C(=O)NCCCN4CCCC4)c3c2)ccc1F", "note": "[compound 675, 5-(2-(4-Fluoro-3-methylphenyl)pyridin-3-yl)-N-(3-(pyrrolidin-1-yl)propyl)pyrazolo[1,5-a]pyridine-3-carboxamide]", "IC50": 0.227}, {"smiles": "Cc1cc(-c2ncc(NCc3cnc4c(c3)ncn4C)cc2-c2ccc3ncsc3c2)ccc1F", "note": "[compound 335, 5-(Benzo[d]thiazol-6-yl)-6-(4-fluoro-3-methylphenyl)-N-((3-methyl-3H-imidazo[4,5-b]pyridin-6-yl)methyl)pyridin-3-amine]", "IC50": 0.306}, {"smiles": "Cc1cc(-c2ncccc2-c2ccc3ncc(C(=O)N[C@@H]4CN5CCC4CC5)n3c2)ccc1F", "note": "[compound 790, (S)-6-(2-(4-Fluoro-3-methylphenyl)pyridin-3-yl)-N-(quinuclidin-3-yl)imidazo[1,2-a]pyridine-3-carboxamide]", "IC50": 4.99}, {"smiles": "N#Cc1cnc2ccc(-c3cccnc3-c3ccccc3F)cn12", "note": "[compound 623, 6-(2-(2-Fluorophenyl)pyridin-3-yl)imidazo[1,2-a]pyridine-3-carbonitrile]", "IC50": 6.87}, {"smiles": "Cc1cc(-c2ncc(NC(C)C)cc2-c2ccc3nccnc3c2)ccc1F", "note": "[compound 241, 6-(4-Fluoro-3-methylphenyl)-N-isopropyl-5-(quinoxalin-6-yl)pyridin-3-amine]", "IC50": 4.06}, {"smiles": "Fc1cc(F)c(-c2ncccc2-c2ccn3ncnc3c2)cc1Cl", "note": "[compound 735, 7-(2-(5-Chloro-2,4-difluorophenyl)pyridin-3-yl)-[1,2,4]triazolo[1,5-a]pyridine]", "IC50": 0.676}, {"smiles": "Cc1ccc(Cl)c(-c2ncccc2-c2ccn3ncnc3c2)c1", "note": "[compound 876, 7-(2-(2-Chloro-5-methylphenyl)pyridin-3-yl)-[1,2,4]triazolo[1,5-a]pyridine]", "IC50": 2.37}, {"smiles": "Cc1cc(-c2ncc(-c3cccc(O)c3)cc2-c2ccc3ncsc3c2)ccc1F", "note": "[compound 343, 3-(5-(Benzo[d]thiazol-6-yl)-6-(4-fluoro-3-methylphenyl)pyridin-3-yl)phenol]", "IC50": 2.64}, {"smiles": "Fc1ccc(-c2ncccc2-c2ccc3nccn3n2)cc1Cl", "note": "[compound 935, 6-(2-(3-Chloro-4-fluorophenyl)pyridin-3-yl)imidazo[1,2-b]pyridazine]", "IC50": 0.192}, {"smiles": "Cc1cc(-c2ncccc2-c2ccc3ncnc(NC4CCCC4)c3c2)ccc1F", "note": "[compound 405, N-Cyclopentyl-6-(2-(4-fluoro-3-methylphenyl)pyridin-3-yl)quinazolin-4-amine]", "IC50": 10.7}, {"smiles": "Cc1cc(-c2ncccc2-c2ccn3ncc(C(=O)N[C@@H]4CCCC[C@H]4N)c3c2)ccc1F", "note": "[compound 663, N-((1R,2R)-2-Aminocyclohexyl)-5-(2-(4-fluoro-3-methylphenyl)pyridin-3-yl)pyrazolo[1,5-a]pyridine-3-carboxamide]", "IC50": 8.09}, {"smiles": "Cc1cc(-c2ncccc2-c2ccn3ncc(C(=O)NCC45CCCN4CCC5)c3c2)ccc1F", "note": "[compound 804, 5-(2-(4-Fluoro-3-methylphenyl)pyridin-3-yl)-N-((tetrahydro-1H-pyrrolizin-7a(5H)-yl)methyl)pyrazolo[1,5-a]pyridine-3-carboxamide]", "IC50": 10.1}, {"smiles": "[2H]C([2H])([2H])c1cccc(-c2ncccc2-c2ccc3nccn3c2)c1", "note": "[compound 600, 6-(2-(3-(Methyl-d3)phenyl)pyridin-3-yl)imidazo[1,2-a]pyridine]", "IC50": 0.179}, {"smiles": "Oc1cccc(-c2ncccc2-c2ccc3[nH]ncc3c2)c1", "note": "[Compound 120, 3-(3-(1H-Indazol-5-yl)pyridin-2-yl)phenol]", "IC50": 0.363}, {"smiles": "Cc1cnc2ccc(-c3cccnc3-c3cccc(C(F)(F)F)c3)cn12", "note": "[compound 530, 3-Methyl-6-(2-(3-(trifluoromethyl)phenyl)pyridin-3-yl)imidazo[1,2-a]pyridine]", "IC50": 0.625}, {"smiles": "Nc1ncnc2ccc(-c3cccnc3-c3cc(O)cc(F)c3)cc12", "note": "[compound 494, 3-(3-(4-Aminoquinazolin-6-yl)pyridin-2-yl)-5-fluorophenol]", "IC50": 0.107}, {"smiles": "Cc1cc(-c2ncccc2-c2ccc3ncc(C(=O)N4CCN(C)CC4)n3c2)ccc1F", "note": "[compound 581, (6-(2-(4-Fluoro-3-methylphenyl)pyridin-3-yl)imidazo[1,2-a]pyridin-3-yl)(4-methylpiperazin-1-yl)methanone]", "IC50": 6.31}, {"smiles": "CC(=O)Nc1cnc(-c2ccc(F)c(C)c2)c(-c2ccc3[nH]ncc3c2)c1", "note": "[Compound 24, N-(6-(4-Fluoro-3-methylphenyl)-5-(1H-indazol-5-yl)pyridin-3-yl)acetamide]", "IC50": 0.671}, {"smiles": "Cc1cc(-c2ncccc2-c2ccn3c(C(=O)O)ncc3c2)ccc1F", "note": "[compound 258, 7-(2-(4-Fluoro-3-methylphenyl)pyridin-3-yl)imidazo[1,5-a]pyridine-3-carboxylic acid]", "IC50": 1.27}, {"smiles": "O=C(NCCCN1CCCC1=O)c1cnc2ccc(-c3cccnc3-c3cc(Cl)c(F)cc3F)cn12", "note": "[compound 730, 6-(2-(5-Chloro-2,4-difluorophenyl)pyridin-3-yl)-N-(3-(2-oxopyrrolidin-1-yl)propyl)imidazo[1,2-a]pyridine-3-carboxamide]", "IC50": 0.59}, {"smiles": "O=c1nc[nH]c2ccc(-c3cccnc3-c3cccc(Cl)c3)cc12", "note": "[compound 389, 6-(2-(3-Chlorophenyl)pyridin-3-yl)quinazolin-4(1H)-one]", "IC50": 0.187}, {"smiles": "Cc1cc(-c2ncccc2-c2ccc3ncc(C(=O)NCCN4CCN(C)CC4)n3c2)ccc1F", "note": "[compound 590, 6-(2-(4-Fluoro-3-methylphenyl)pyridin-3-yl)-N-(2-(4-methylpiperazin-1-yl)ethyl)imidazo[1,2-a]pyridine-3-carboxamide]", "IC50": 0.514}, {"smiles": "Cc1cc(-c2ncc(NCc3ccc(S(N)(=O)=O)cc3)cc2-c2ccc3ncsc3c2)ccc1F", "note": "[compound 359, 4-(((5-(Benzo[d]thiazol-6-yl)-6-(4-fluoro-3-methylphenyl)pyridin-3-yl)amino)methyl)benzenesulfonamide]", "IC50": 0.524}, {"smiles": "Cc1cc(-c2ncccc2-c2ccn3ncc(C(=O)NC4CCN(C(C)C)CC4)c3c2)ccc1F", "note": "[compound 701, 5-(2-(4-Fluoro-3-methylphenyl)pyridin-3-yl)-N-(1-isopropylpiperidin-4-yl)pyrazolo[1,5-a]pyridine-3-carboxamide]", "IC50": 0.167}, {"smiles": "Nc1ncnc2ccc(-c3cccnc3-c3cccc(OCC(F)(F)F)c3)cc12", "note": "[compound 484, 6-(2-(3-(2,2,2-Trifluoroethoxy)phenyl)pyridin-3-yl)quinazolin-4-amine]", "IC50": 0.161}, {"smiles": "Cc1cc(-c2ncccc2-c2ccc3ncsc3n2)ccc1F", "note": "[compound 303, 5-(2-(4-Fluoro-3-methylphenyl)pyridin-3-yl)thiazolo[5,4-b]pyridine]", "IC50": 0.0947}, {"smiles": "Cc1cc(-c2ncccc2-c2ccc3ncc(C(=O)NCCC45CCCN4CCC5)n3c2)ccc1F", "note": "[compound 803, 6-(2-(4-Fluoro-3-methylphenyl)pyridin-3-yl)-N-(2-(tetrahydro-1H-pyrrolizin-7a(5H)-yl)ethyl)imidazo[1,2-a]pyridine-3-carboxamide]", "IC50": 2.26}, {"smiles": "Cc1cc(-c2ncc(NCc3ccncc3)cc2-c2ccc3nccnc3c2)ccc1F", "note": "[compound 245, 6-(4-Fluoro-3-methylphenyl)-N-(pyridin-4-ylmethyl)-5-(quinoxalin-6-yl)pyridin-3-amine]", "IC50": 1.26}]}]}
